Laboratory results from PubChem BioAssay AID2060511 (Molecular Pharmacology Branch, DTP, NCI, 2025).

System: 422866-222-R5-J1-PDC spheroids with HUVEC/MSC, viability
Assay: Anticancer human tumor 422866-222-R5-J1-PDC patient-derived pancreatic adenocarcinoma cell line growth inhibition [GQUAD]
Conditions: for IC50: curve of first compound; for viability, T/C: stronger effect = lower value
Procedure, shortened: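 Viability of tumor cells grown as complex spheroids with endothelial and stromal cells, exposed to drug combinations. Top concentration at or near clinical Cmax (else 10 microM), diluted in half-log increments.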

[1] = second compound 0.0316 µM, first compound 0.0316 µM
[2] = second compound 0.0316 µM, first compound 0.316 µM
[3] = second compound 0.1 µM, first compound 0.0316 µM
[4] = second compound 0.1 µM, first compound 0.316 µM
[5] = second compound 0.316 µM, first compound 0.0316 µM
[6] = second compound 0.316 µM, first compound 0.316 µM
[7] = second compound 1 µM, first compound 0.0316 µM
[8] = second compound 1 µM, first compound 0.316 µM
[9] = second compound 3.16 µM, first compound 0.0316 µM
[10] = second compound 3.16 µM, first compound 0.316 µM
[11] = second compound 10 µM, first compound 0.0316 µM
[12] = second compound 10 µM, first compound 0.316 µM
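Further: spheroids exposed to compounds for seven days before reading.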
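Wherever viability, T/C is given: percent viability relative to DMSO vehicle control taken as 100%.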

SMILES: Cc1[nH]c2ccccc2c1CCNCc1ccc(/C=C/C(=O)NO)cc1 + Cc1[nH]c2ccc(F)cc2c1-c1nc2c3cccnc3c3ncccc3c2[nH]1
- IC50 (second compound 0.0316 µM): > 0.316 µM
- IC50 (second compound 0.1 µM): > 0.316 µM
- IC50 (second compound 0.316 µM): > 0.316 µM
- IC50 (second compound 1 µM): > 0.316 µM
- IC50 (second compound 3.16 µM): > 0.316 µM
- IC50 (second compound 10 µM): > 0.316 µM
- viability, T/C (second compound 0.0316 µM, first compound 0.000999 µM): 113%
- viability, T/C (second compound 0.0316 µM, first compound 0.00316 µM): 92.7%
- viability, T/C (second compound 0.0316 µM, first compound 0.00999 µM): 110%
- viability, T/C [1]: 98.6%
- viability, T/C (second compound 0.0316 µM, first compound 0.0999 µM): 101%
- viability, T/C [2]: 102%
- viability, T/C (second compound 0.1 µM, first compound 0.000999 µM): 127%
- viability, T/C (second compound 0.1 µM, first compound 0.00316 µM): 108%
- viability, T/C (second compound 0.1 µM, first compound 0.00999 µM): 102%
- viability, T/C [3]: 93%
- viability, T/C (second compound 0.1 µM, first compound 0.0999 µM): 111%
- viability, T/C [4]: 94%
- viability, T/C (second compound 0.316 µM, first compound 0.000999 µM): 96.6%
- viability, T/C (second compound 0.316 µM, first compound 0.00316 µM): 97.2%
- viability, T/C (second compound 0.316 µM, first compound 0.00999 µM): 121%
- viability, T/C [5]: 105%
- viability, T/C (second compound 0.316 µM, first compound 0.0999 µM): 115%
- viability, T/C [6]: 98.9%
- viability, T/C (second compound 1 µM, first compound 0.000999 µM): 74.5%
- viability, T/C (second compound 1 µM, first compound 0.00316 µM): 93.9%
- viability, T/C (second compound 1 µM, first compound 0.00999 µM): 114%
- viability, T/C [7]: 112%
- viability, T/C (second compound 1 µM, first compound 0.0999 µM): 103%
- viability, T/C [8]: 111%
- viability, T/C (second compound 3.16 µM, first compound 0.000999 µM): 64.2%
- viability, T/C (second compound 3.16 µM, first compound 0.00316 µM): 73.7%
- viability, T/C (second compound 3.16 µM, first compound 0.00999 µM): 68.2%
- viability, T/C [9]: 73.9%
- viability, T/C (second compound 3.16 µM, first compound 0.0999 µM): 75.2%
- viability, T/C [10]: 78.9%
- viability, T/C (second compound 10 µM, first compound 0.000999 µM): 52.1%
- viability, T/C (second compound 10 µM, first compound 0.00316 µM): 66.2%
- viability, T/C (second compound 10 µM, first compound 0.00999 µM): 64.7%
- viability, T/C [11]: 65.7%
- viability, T/C (second compound 10 µM, first compound 0.0999 µM): 61.1%
- viability, T/C [12]: 67.6%

SMILES: O=C(NO)c1cnc(N2CCN(S(=O)(=O)c3ccc4ccccc4c3)CC2)nc1 + Cc1[nH]c2ccc(F)cc2c1-c1nc2c3cccnc3c3ncccc3c2[nH]1
- IC50 (second compound 0.0316 µM): > 10 µM
- IC50 (second compound 0.1 µM): > 10 µM
- IC50 (second compound 0.316 µM): > 10 µM
- IC50 (second compound 1 µM): > 10 µM
- IC50 (second compound 3.16 µM): > 10 µM
- IC50 (second compound 10 µM): > 10 µM
- viability, T/C [1]: 78.6%
- viability, T/C (second compound 0.0316 µM, first compound 0.1 µM): 69.2%
- viability, T/C [2]: 64.7%
- viability, T/C (second compound 0.0316 µM, first compound 1 µM): 68.1%
- viability, T/C (second compound 0.0316 µM, first compound 3.16 µM): 71.6%
- viability, T/C (second compound 0.0316 µM, first compound 10 µM): 75.4%
- viability, T/C [3]: 81.1%
- viability, T/C (second compound 0.1 µM, first compound 0.1 µM): 68.3%
- viability, T/C [4]: 56.4%
- viability, T/C (second compound 0.1 µM, first compound 1 µM): 61%
- viability, T/C (second compound 0.1 µM, first compound 3.16 µM): 74.2%
- viability, T/C (second compound 0.1 µM, first compound 10 µM): 72.3%
- viability, T/C [5]: 77.5%
- viability, T/C (second compound 0.316 µM, first compound 0.1 µM): 68%
- viability, T/C [6]: 71.4%
- viability, T/C (second compound 0.316 µM, first compound 1 µM): 61.7%
- viability, T/C (second compound 0.316 µM, first compound 3.16 µM): 63.2%
- viability, T/C (second compound 0.316 µM, first compound 10 µM): 78.1%
- viability, T/C [7]: 64.4%
- viability, T/C (second compound 1 µM, first compound 0.1 µM): 61.6%
- viability, T/C [8]: 62.6%
- viability, T/C (second compound 1 µM, first compound 1 µM): 61.2%
- viability, T/C (second compound 1 µM, first compound 3.16 µM): 75%
- viability, T/C (second compound 1 µM, first compound 10 µM): 70%
- viability, T/C [9]: 56%
- viability, T/C (second compound 3.16 µM, first compound 0.1 µM): 56.6%
- viability, T/C [10]: 51.6%
- viability, T/C (second compound 3.16 µM, first compound 1 µM): 63.3%
- viability, T/C (second compound 3.16 µM, first compound 3.16 µM): 67.8%
- viability, T/C (second compound 3.16 µM, first compound 10 µM): 66%
- viability, T/C [11]: 60.1%
- viability, T/C (second compound 10 µM, first compound 0.1 µM): 47.8%
- viability, T/C [12]: 59.5%
- viability, T/C (second compound 10 µM, first compound 1 µM): 57%
- viability, T/C (second compound 10 µM, first compound 3.16 µM): 51%
- viability, T/C (second compound 10 µM, first compound 10 µM): 64.4%
